Test results taken from patent US12600732B2, “Bifunctional compounds for degrading BTK via ubiquitin proteosome pathway” (NURIX THERAPEUTICS, INC., priority 2019, dated 2026).
“And” between values parts separate entries of the source, which are not always exact repeats. Equal values may be shown once.

Assays:
primary human T cells [1] = assay: T cell activation assay, CD25 and CD69 staining (flow cytometry); assay type: cell-based; details: for CD25 Staining Anti-CD3/Anti-CD28 Stimulation / CD69 Staining Anti-CD3/Anti-CD28 Stimulation: fold-change of response relative to baseline; for expression of CD25 and CD69 compared to baseline (anti-CD3/anti-CD28 stimulation alone): primary human T cells
Protocol: (§1) This example evaluates whether CTMs with IMiD activity affect T cell activation. […] These assays were performed to assess whether BTK CTMs with and without IMiD activity affected activation of primary human T cells after stimulation of the T cell receptor with anti-CD3/ati-CD28 stimulation. T cell activation was measured by IL-2 secretion (ELISA assay) and upregulation of activation markers CD25 and CD69 on the surface of T cells (flow cytometry). Data are presented as the fold-change of response relative to baseline (stimulation with anti-CD3/anti-CD28 stimulation in the absence of compound).

primary human T cells [2] = assay: T cell activation assay, IL-2 secretion (ELISA); assay type: cell-based; details: for IL-2 secretion compared to baseline (anti-CD3/anti-CD28 stimulation alone): primary human T cells
Protocol: as §1

TMD8 cells = assay: Cell viability assay (CellTiter-Glo), TMD8 cells; details: for EC50: Homo sapiens, TMD8, 72 h; for EMAX (% viable cells): TMD8 cells, treatment time 72 h
Protocol: (§2) Cell viability was determined using CellTiter-Glo 2.0 Luminescent Cell Viability Assay (Promega, G9242), which quantitates the amount of ATP present as a proxy for the number of viable cells in culture. Cells were plated with densities between 2000-4000 cells per well in 96-well plates. […] CellTiter-Glo reagent was added to cells at a dilution of 1:20, and the plate was incubated ten minutes at room temperature prior to reading the luminescence signal using an EnVision plate reader. Controls included cells treated with DMSO and wells that contained no cells, only media. Background luminescence signal was determined by control wells containing no cells, only media, and was then subtracted from all sample wells. Luminescence values were then normalized to DMSO-treated wells and reported at proportion viable cells.
Here, the ability of CTMs to affect viability in BTK-dependent cell lines was assessed.

TMD8 C481S cells = assay: Cell viability assay (CellTiter-Glo), TMD8 C481S cells; details: for EC50: Homo sapiens, TMD8, 72 h; for EMAX (% viable cells): TMD8 C481S cells, treatment time 72 h
Protocol: as §2

BTK = biological target: T1, BTK (Mus musculus, UniProt P35991); assay: In vivo degradation of BTK in mouse PD experiments with oral dosing
T1 construct: from tissue; host or cells: mouse blood B cells / splenocytes (CD-1 or BALB/c)
T1 sequence (P35991 whole entry): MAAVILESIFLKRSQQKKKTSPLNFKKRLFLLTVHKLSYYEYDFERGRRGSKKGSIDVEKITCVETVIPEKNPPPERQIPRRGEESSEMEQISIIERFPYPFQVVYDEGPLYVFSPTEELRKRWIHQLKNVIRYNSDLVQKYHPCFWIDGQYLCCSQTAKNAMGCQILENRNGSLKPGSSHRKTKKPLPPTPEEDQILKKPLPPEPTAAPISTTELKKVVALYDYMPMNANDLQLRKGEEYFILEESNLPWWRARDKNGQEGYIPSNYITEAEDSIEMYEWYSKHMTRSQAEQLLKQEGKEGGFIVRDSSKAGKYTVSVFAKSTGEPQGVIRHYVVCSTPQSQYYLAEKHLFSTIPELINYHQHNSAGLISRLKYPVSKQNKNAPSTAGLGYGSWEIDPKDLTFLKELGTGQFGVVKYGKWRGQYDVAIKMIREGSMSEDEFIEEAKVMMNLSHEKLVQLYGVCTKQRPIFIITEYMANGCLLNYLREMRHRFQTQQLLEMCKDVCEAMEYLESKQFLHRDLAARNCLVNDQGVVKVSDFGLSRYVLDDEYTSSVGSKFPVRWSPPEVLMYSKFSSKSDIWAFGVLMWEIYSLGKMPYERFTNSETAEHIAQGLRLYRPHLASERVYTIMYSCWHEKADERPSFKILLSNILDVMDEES
Protocol: A method of determining the pharmacodynamic profile of BTK degraders was performed by dosing either CD-1 or BALB/c mice with CTM. The CTM was prepared in a suitable formulation and was administered via oral gavage (PO) at a suitable dose level and frequency as informed by prior pharmacokinetic and tolerability studies. Following administration of CTM, BTK levels in blood or splenocytes are measured using flow cytometry or HTRF. For assessment of BTK levels via flow cytometry, either whole blood or splenocytes were first treated with ACK RBC lysis buffer to facilitate lysing of red blood cells. Remaining cells were then stained with fluorophore-conjugated antibodies against CD45, TCR beta and CD45R (B220). Cell pellets were washed with 1×PBS, fixed, and permeabilized for twenty-four hours with Foxp3/Transcription Factor Fixation/Permeabilization Kit. Cells were then stained intracellularly with unconjugated BTK antibody and detected with a fluorophore-conjugated secondary antibody. Stained cells were run on an Attune N×T Acoustic Focusing Flow Cytometer (Thermo-Fisher A29004), and data was analyzed using FlowJo (v10.5.3) and GraphPad Prism (v7.00) software. Lymphocytes were gated for B cells defined as CD45+ TCR beta−B220+ and T cells as CD45+ TCR beta+B220−. The BTK geometric mean fluorescence intensity (MFI) was calculated for B and T cells. Percent BTK degradation for each compound-treated sample was calculated using the equation described below: % Degradation=100*(Treated sample B cell BTK MFI-treated sample T cell BTK MFI)/Vehicle B cell BTK MFI-Vehicle T cell BTK MFI)
This example evaluates in vivo activity of BTK CTMs via a direct mouse PD measurement following oral dosing
Screens were completed at 90 mg/kg for six hours, and then changed to lower doses/longer time points after seeing strong BTK degradation activity with an initial set of compounds. This assay was useful in selecting compounds for in vivo efficacy experiments.

[3] = PK data for BTK CTMs (in vivo plasma concentrations); details: Mouse Balb/c
Excerpt: The present example evaluates in vivo plasma concentrations of BTK CTMs to develop PK-PD-efficacy relationship and predict human exposure.

[4] = 1.4 nM, fold-change of response relative to baseline
[5] = 37 nM, fold-change of response relative to baseline
[6] = 333 nM, fold-change of response relative to baseline (stimulation without compound)

SMILES | CD25 Staining Anti-CD3/Anti-CD28 Stimulation (primary human T cells [1]; 1.4 nM) | CD69 Staining Anti-CD3/Anti-CD28 Stimulation (primary human T cells [1]; 1.4 nM) | CD25 Staining Anti-CD3/Anti-CD28 Stimulation (primary human T cells [1]; 37 nM) | CD69 Staining Anti-CD3/Anti-CD28 Stimulation (primary human T cells [1]; 37 nM) | CD25 Staining Anti-CD3/Anti-CD28 Stimulation (primary human T cells [1]; 333 nM) | CD69 Staining Anti-CD3/Anti-CD28 Stimulation (primary human T cells [1]; 333 nM) | IL-2 Secretion Anti-CD3/Anti-CD28 Stimulation (primary human T cells [2]; [4]) | IL-2 Secretion Anti-CD3/Anti-CD28 Stimulation (primary human T cells [2]; [5]) | IL-2 Secretion Anti-CD3/Anti-CD28 Stimulation (primary human T cells [2]; [6]) | also measured
Nc1cccc2c1C(=O)N(C1CCC(=O)NC1=O)C2=O (centres unmarked) [Pomalidomide, pomalidomide, reference compound] | 1.03 | 1.01 | 1.39 | 1.33 | 1.63 | 1.77 | 1.31 | 4.80 | 5.50 | expression of CD25 and CD69 compared to baseline (anti-CD3/anti-CD28 stimulation alone) (primary human T cells [1]): increase expression; IL-2 secretion compared to baseline (anti-CD3/anti-CD28 stimulation alone) (primary human T cells [2]): induce IL-2 secretion
CN1CCN([C@@H]2CCCN(c3cnc(C(N)=O)c(Nc4ccc(C5CCN(CCCNc6cccc7c6C(=O)N(C6CCC(=O)NC6=O)C7=O)CC5)cc4)n3)C2)C1=O (some centres unmarked) [Compound 155] | 1.31 | 1.25 | 1.46 | 1.34 | 1.21 | 1.20 | 1.62 | 3.13 | 3.11 | 
CN1CCN([C@@H]2CCCN(c3cnc(C(N)=O)c(Nc4ccc(OCCCNc5ccc6c(c5)C(=O)N(C5CCC(=O)NC5=O)C6=O)cc4)n3)C2)C1=O (some centres unmarked) [Compound 64] | 1.17 | 1.14 | 1.04 | 1.14 | 0.34 | 0.64 | 1.28 | 1.80 | 1.48 | 
CN1CCN([C@@H]2CCCN(c3cnc(C(N)=O)c(Nc4ccc(C5CCN(C6CN(Cc7ccc8c(c7)CN(C7CCC(=O)NC7=O)C8=O)C6)CC5)cc4)n3)C2)C1=O (some centres unmarked) [Compound 86] |  |  |  |  |  |  |  |  |  | EC50 (TMD8 cells): 0.67 nM; EMAX (% viable cells) (TMD8 cells): 27%; EC50 (TMD8 C481S cells): 4.78 nM; EMAX (% viable cells) (TMD8 C481S cells): 30%; % BTK Remaining (BTK; oral dose 3 mg/kg, 6 h, blood, flow cytometry): 56%; % BTK Remaining (BTK; oral dose 3 mg/kg, 24 h, blood, flow cytometry): 70%; AUC ([3]; 1 mg/kg IV): 0.5 µM·h; clearance ([3]; 1 mg/kg IV): 35 mL/min/kg; Vd ([3]; 1 mg/kg IV, read-out: Volume of Distribution): 7.7 L/kg; AUC ([3]; 30 mg/kg PO): 0.34 µM·h; bioavailability ([3]; 30 mg/kg PO): 2%
CN1CCN([C@@H]2CCCN(c3cnc(C(N)=O)c(Nc4ccc(N5CC6(C5)CN(c5ccc7c(c5)C(=O)N(C5CCC(=O)NC5=O)C7=O)C6)cc4)n3)C2)C1=O (stereo partly drawn) [Compound 34, 3-((4-(6-(2-(2,6-dioxopiperidin-3-yl)-1,3-dioxoisoindolin-5-yl)-2,6-diazaspiro[3.3]heptan-2-yl)phenyl)amino)-5-((R)-3-(3-methyl-2-oxoimidazolidin-1-yl)piperidin-1-yl)pyrazine-2-carboxamide] | 1.21 | 1.14 | 1.31 | 1.21 | 1.25 | 1.23 | 1.48 | 1.66 | 1.58 | % BTK Remaining (BTK; oral dose 1 mg/kg, 6 h, splenocytes, HTRF): 75%
Nc1cccc2c1CN(C1CCC(=O)NC1=O)C2=O (centres unmarked) [Lenalidomide, lenalidomide, reference compound] | 1.26 | 1.20 | 1.73 | 1.49 | 1.93 | 1.81 | 1.63 | 4.48 | 8.67 | expression of CD25 and CD69 compared to baseline (anti-CD3/anti-CD28 stimulation alone) (primary human T cells [1]): increase expression; IL-2 secretion compared to baseline (anti-CD3/anti-CD28 stimulation alone) (primary human T cells [2]): induce IL-2 secretion
CN1CCN([C@@H]2CCCN(c3cnc(C(N)=O)c(Nc4ccc(N5CCN(C[C@@H]6[C@H]7CN(c8ccc9c(c8)C(=O)N(C8CCC(=O)NC8=O)C9=O)C[C@@H]67)CC5)cc4)n3)C2)C1=O (some centres unmarked) [Compound 38] | 1.05 | 1.02 | 1.02 | 0.99 | 0.86 | 0.90 | 1.21 | 1.58 | 1.81 | % BTK Remaining (BTK; oral dose 1 mg/kg, 6 h, splenocytes, HTRF, 1 mg/kg): 68% and 76%; % BTK Remaining (BTK; oral dose 3 mg/kg, 6 h, splenocytes, HTRF): 38%
CN1CCN([C@H]2CCCN(c3cnc(C(N)=O)c(Nc4ccc5c(c4)CCN(CC4CN(c6ccc7c(c6)C(=O)N(C6CCC(=O)NC6=O)C7=O)C4)C5)n3)C2)C1=O (some centres unmarked) [Compound 92] | 1.14 | 1.09 | 1.21 | 1.29 | 1.06 | 1.35 | 1.53 | 2.19 | 1.63 | 
CN1CCN([C@@H]2CCCN(c3cnc(C(N)=O)c(Nc4ccc(C5CCN(c6ccc7c(c6)C(=O)N(C6CCC(=O)NC6=O)C7=O)CC5)cc4)n3)C2)C1=O (some centres unmarked) [Compound 47] |  |  |  |  |  |  |  |  |  | EC50 (TMD8 cells): 3.83 nM; EMAX (% viable cells) (TMD8 cells): 39%; EC50 (TMD8 C481S cells): 43.5 nM; EMAX (% viable cells) (TMD8 C481S cells): 61%; % BTK Remaining (BTK; oral dose 90 mg/kg, 6 h, splenocytes, HTRF): 80%
CN1CCN([C@@H]2CCCN(c3cnc(C(N)=O)c(Nc4ccc(C5CCN(C[C@H]6CC[C@H](Nc7cccc8c7C(=O)N(C7CCC(=O)NC7=O)C8=O)CC6)CC5)cc4)n3)C2)C1=O (some centres unmarked) [Compound 154] | 1.23 | 1.18 | 1.36 | 1.29 | 1.13 | 1.16 | 1.77 | 3.38 | 3.45 | 
